Test results as given in publication PMC6335354, “Chitosan Grafted With β-Cyclodextrin: Synthesis, Characterization, Antimicrobial Activity, and Role as Absorbefacient and Solubilizer” (Frontiers in Chemistry, 2019).
In brackets after ≈: the same amount, converted by molar mass. Structures can show the parent of a compound that is named as a salt. Where two headings read alike, the source gives them in different places.

Assays:
[1] = added 6 μg/mL (sulfamethoxazole 8 μg/mL)
Protocol: The stability test was performed by keeping the samples for 0h, 1h, 2h, 4h, 6h, 8h, 24h at room temperature before analysis. […] S2.

[2] = Aqueous solubility of sulfonamides (UV-Vis); details: thermodynamic from solid
Protocol: Aqueous solubility measurements were conducted according to the method of Wang and Wang ([2000]). […] The mixture was agitated until reaching equilibrium with water in the equilibrium cell and then kept for 30 min. A known amount of the upper layer of the mixture was removed from the equilibrium cell and diluted with distilled water. The calibration curve established by ultraviolet–visible spectrophotometry (UV–Vis) was used to determine the concentration of the solution.

[3] = physchem; details: for solubility at 2 h: 25 °C, aqueous with cosolvent or surfactant or cyclodextrin, thermodynamic from solid, solubility with CD-g-CS
Protocol: Acetic acid [1 mL, 1 % (v/v)] was used to dissolve 10 mg of CD-g-CS, and the pH of the solution was adjusted to be similar to that of the distilled water. […] A vortex mixer was used to mix the suspension followed by sonication for 20 min. The mixture was then stirred for 2 h at 25°C followed by the centrifugation of the suspension at 8,000 r/min for 10 min. The supernatant was filtered using a membrane with 0.45-μm pore size.

[4] = system: S. xylosus; assay: Uptake of doxorubicin hydrochloride by flow cytometry (FCS); format: cell-based, Staphylococcus xylosus; details: 50 μmol/L doxorubicin hydrochloride, CD-g-CS 0.5, 2, 5 mg/mL, 1 h, 37°C
Protocol: The cultured S. xylosus in the logarithmic phase were mixed with CD-g-CS (5, 2, or 0.5 mg/mL) containing 50 μmol/L doxorubicin hydrochloride. The mixtures were incubated at 37°C for 1 h. Subsequently, the S. xylosus solutions were centrifuged, washed three times with PBS (pH = 7.2), and resuspended in 500 μL PBS. For each sample, S. xylosus was sorted using a Flow Cytometry System (FCS). S. xylosus treated with only doxorubicin hydrochloride served as a control.

[5] = system: S. xylosus; assay: Uptake of doxorubicin hydrochloride by CLSM; format: cell-based, Staphylococcus xylosus; details: 50 μmol/L doxorubicin hydrochloride, 2 mg/mL CD-g-CS, 30 min, 1 and 3 h
Protocol: Cultured S. xylosus in the logarithmic phase was mixed with 2 mg/mL CD-g-CS containing 50 μmol/L doxorubicin hydrochloride. The mixtures were incubated at 37°C for 30 min, 1 or 3 h. The mixtures of S. xylosus were then centrifuged, washed three times, and re-suspended in 500 μL PBS (pH = 7.2). Each sample with S. xylosus was placed on a glass slide and observed by confocal laser scanning microscopy (CLSM). S. xylosus treated with only doxorubicin hydrochloride for 30 min, 1 or 3 h served as the control.

COc1cc(NS(=O)(=O)c2ccc(N)cc2)ncn1 [sulfamonomethoxine] gave a Measured concentration ([1]; 0h at room temperature) of 6.09 ± 0.060 µg/mL, a Measured concentration ([1]; 1h at room temperature) of 6.09 ± 0.026 µg/mL and a Measured concentration ([1]; 2h at room temperature) of 5.93 ± 0.021 µg/mL. It also gave a Measured concentration ([1]; 4h at room temperature) of 6.12 ± 0.018 µg/mL, a Measured concentration ([1]; 6h at room temperature) of 5.88 ± 0.018 µg/mL and a Measured concentration ([1]; 8h at room temperature) of 6.12 ± 0.046 µg/mL. It also gave a Measured concentration ([1]; 24h at room temperature) of 6.13 ± 0.015 µg/mL, a solubility ([2]; distilled water) of 69 ± 1.59 µg/mL (≈ 246 µM) and a solubility at 2 h [3] of 283 ± 13 µg/mL (≈ 1010 µM).

For COc1cccc2c1C(=O)c1c(O)c3c(c(O)c1C2=O)C[C@@](O)(C(=O)CO)C[C@@H]3O[C@H]1C[C@H](N)[C@H](O)[C@H](C)O1 [doxorubicin hydrochloride], the “uptake of doxorubicin hydrochloride (fluorescence intensity, FCS)” value [4] was “very low” and the “uptake of doxorubicin hydrochloride (fluorescence intensity, CLSM)” value [5] was “very weak”.

Work on Nc1ccc(S(=O)(=O)Nc2ncccn2)cc1 [sulfadiazine] yielded a Measured concentration ([1]; 0h at room temperature) of 5.98 ± 0.078 µg/mL, a Measured concentration ([1]; 1h at room temperature) of 6.04 ± 0.058 µg/mL and a Measured concentration ([1]; 2h at room temperature) of 6.13 ± 0.013 µg/mL. For the same compound, the Measured concentration ([1]; 4h at room temperature) was 5.89 ± 0.047 µg/mL, the Measured concentration ([1]; 6h at room temperature) was 5.95 ± 0.055 µg/mL and the Measured concentration ([1]; 8h at room temperature) was 6.14 ± 0.043 µg/mL. The Measured concentration ([1]; 24h at room temperature) was 6.02 ± 0.054 µg/mL, the solubility ([2]; water) was 26 ± 1.68 µg/mL (≈ 104 µM) and the solubility at 2 h ([3]; 10 mg/mL CD-g-CS solution, with 10 mg/mL CD-g-CS (QCD = 0.6 × 10^2 μmol/g)) was 147 ± 7.05 µg/mL (≈ 587 µM). For the same compound, the solubility at 2 h ([3]; 10 mg/mL CD-g-CS solution, with 10 mg/mL CD-g-CS (QCD = 0.643 × 10^3 μmol/g)) was 236 ± 4.25 µg/mL (≈ 943 µM), the “solubility enhancement compared to the aqueous solution” value ([3]; with 10 mg/mL CD-g-CS (QCD = 0.6 × 10^2 μmol/g)) was “approximately 5.6 times” and the “solubility enhancement compared to the aqueous solution” value ([3]; with 10 mg/mL CD-g-CS (QCD = 0.643 × 10^3 μmol/g)) was 9.1 times.
